Patent US4990538A, “Use of toremifene and its metabolites for the reversal of multidrug resistance of cancer cells against cytotoxic drugs” (priority 1989, dated 1991)
“Also recorded” adds a separate entry of the source.

Experiments:
[1] = tested on: MCF-7 oestrogen receptor positive breast cancer cell line; conditions: Foster et al, cited from earlier work
[2] = tested on: MDR cell; conditions: Ramu et al; cited from earlier work
[3] = tested on: rat PKC; conditions: O'Brian et al; cited from earlier work
[4] = cited from earlier work; for Safety / toxicity in clinical use: at dose levels or concentrations required for MDR reversal
[5] = tested on: MCF-7/DOX cells; test: Inhibition of cell growth / reversal of MDR in MCF-7/DOX cells (methylene blue); assay type: cell-based, human; conditions: for Effectiveness in reversing MDR: MCF-7/DOX cells, Table 5 and FIG. 7; for Inhibition of cell growth, Actual: 2880 min
Description: The cells were cultivated in 100 ul volumes in 96-well microtiter plates. The principle of the method was to cultivate cells in the presence of the drugs/ drug combinations for 48 hours. After this time the living cells were stained with methylene blue and quantitated spectrophotometrically using microtiter plate reader (Titertek Model MCC/340) interfaced to an Apple IIe computer. Inhibition of the cell growth is expressed as a percentage of absorbance of vehicle treated control cultures.

[6] = tested on: cultured cells; conditions: Sutherland et al; cited from earlier work
[7] = tested on: PKC; conditions: Horgan et al; cited from earlier work
[8] = tested on: α1 -acid glycoprotein (AAG); conditions: cited from earlier work
[9] = tested on: CHO-K1 cells; test: Doxorubicin transport (accumulation) in CHO-K1 cells; assay type: cell-based; conditions: 2 μM toremifene; 1 μM doxorubicin; wild-type CHO-K1
[10] = in vitro; conditions: hamster, cho-adr cells
Description: (§4) Initial cell growth studies were carried out to investigate the effect of combination toremifene +doxorubicin in doxorubicin sensitive and resistant cells. Cell cultures were carried out using wild type CHO-K1 cells as well as CHO-Adr cells, the latter being selected by a series of step-wise selections of doxorubicin resistant clones in presence of 0.4 ug/ml of doxorubicin. […] The resistant cells were stable in cell culture in the absence of doxorubicin. Both cell lines were cultivated in Hams F10 medium supplemented with 5% newborn calf serum, 5% foetal calf serum, antibiotics and 3mM glutamine. The cells were maintained as monolayer cultures 37° C. under 5% CO2. Drug sensitivity in CHO-K1and CHO-Adr cells was assessed by a semi-automated colorimetric MTT assay. The assay is dependent on the cellular reduction of MTT (3-U4,5-dimethylthiazol-2-ylA-2,5-diphenyl tertazolium bromide, thiazolyl blue) by the mitochondrial dehydrogenase of viable cells to a blue formazan product which was measured spectrophotometrically. The cells were seeded on 96-well plates and allowed to settle for 12 hours at 37° C. in 5% CO2. Appropriate drug concentrations diluted in growth medium were added for 24 hours. Toremifene was dissolved in 95% ethanol stock solution, doxorubicin stock solution was prepared in water. […] The cells were incubated with the drugs for 24 hours, after which the cells were washed twice with phosphate buffered saline before being placed in 200 μl fresh medium for a further 48 hours. At the end of this incubation 0.1 mg MTT was added to each well and incubated for 4 hours. The medium was carefully aspirated and the crystals were solubilised in 100 μ l DMSO (dimethyl sulfoxide). Absorbances at 540 nm were read immediately on an ELISA Multiskan reader. The results were expressed as a percentage of absorbance of drug treated cells compared to controls.
(§5) The effect of AAG in the concentration of 0.1 to 2 mg/ml was assessed on the potentiation produced by toremifene.

[11] = tested on: Ovarian ca.; conditions: subrenal capsule assay, all tumor types
Description: (§1) Pieces of fresh human tumors were implanted under the outer capsule of mouse kidney. Mice were treated with different combinations of cytotoxic drugs (doses preselected according to toxicity of each combination), with or without toremifene (150 mg/kg p.o.). Control animals received saline injections. The drugs were given on five consecutive days after the inoculation of the tumors. The sizes of the tumor pieces were measured by stereo microscope equipped with ocular micrometer immediately after inoculation (initial size) and on the sixth day when the animals were killed (final size). The difference final size - initial size describes the growth or regression of the tumor. The measuring unit was ocular micrometer unit (omu). 10 omu is identical to 1.0 mm. In addition to the tumor size, the weight gain of the animals was measured. The weight gain describes the toxicity of the treatment. In general, the ratio final weight/ pretest weight should be more than 0.80. Otherwise the toxicity is considered unacceptable.

[12] = mouse, in vivo
Description: as §1

[13] = tested on: CHO-Adr cells; test: MTT cell viability assay in doxorubicin resistant CHO-Adr cells
Description: as §4, §5

[14] = tested on: B-16 melanoma; test: Schedule dependency of antitumor effect in B-16 melanoma; conditions: toremifene 150 mg/kg p.o. days 1-5
Description: (§2) Lewis Lung (LL) or melanoma B-16 tumor cells, 2×10^6 cells/animal, were inoculated intramuscularly to female C-57 mice. Tumors were allowed to grow to the mean diameter of 1.5 cm after which toremifene/doxorubicin treatments were started as indicated in the next tables. Tumor size was measured before treatment and after 10 days in 2 dimensions and the mean was considered as tumor diameter. Weight of the animals was also recorded.

[15] = tested on: CHO-K1 cells; test: MTT cell viability assay in wild-type CHO-K1 cells
Description: as §4, §5

[16] = tested on: HOV-018; test: Number of living cells (bioluminescence), ovarian cancer line HOV-018; conditions: doxorubicin 0 μg/ml
Description: (§3) Two human ovarian cell lines were established in vitro from fresh serous ovarian cancer tissues. The lines are coded HOV-007 and HOV-018. The cells were cultivated in Eagle's MEM containing 1% unstripped foetal calf serum. The assays were carried out at 37° C. in 5% CO2 on 96 well plates.

[17] = tested on: MCF-7/DOX; test: Sensitization of MCF-7/DOX by patients' plasma ultrafiltrate; assay type: cell-based, human; conditions: FIG. 8
Description: Cells were growth in Corning 75-cm^2 tissue flasks and were maintained in exponential growth using RPMI 1640 medium supplemented with 5% fetal bovine serum in 5% CO2 and 95% air. […] The cells were cultivated in 100 ul volumes in 96-well microtiter plates. The principle of the method was to cultivate cells in the presence of the drugs/ drug combinations for 48 hours. After this time the living cells were stained with methylene blue and quantitated spectrophotometrically using microtiter plate reader (Titertek Model MCC/340) interfaced to an Apple IIe computer. Inhibition of the cell growth is expressed as a percentage of absorbance of vehicle treated control cultures. Human plasma samples were obtained from patients participating clinical phase I studies receiving 10, 20, 40, 60, 200 or 400 mg toremifene daily for eight weeks. Ultrafiltrate from the plasma was prepared by placing plasma specimens in Amicon CF-10 filters (MW cutoff 10 000) followed by centrifugation at 5000×g for 20 minutes. The ultrafiltrates were used in order to study if the concentrations achieved clinically were able to sensitize MCF-7/DOX. Part of the growth medium was replaced by plasma ultrafiltrate and the cells were allowed to grow for 4 days, at which time they were stained and quantitated as described above.

[18] = tested on: HOV-007; test: Number of living cells (bioluminescence), ovarian cancer line HOV-007; conditions: doxorubicin 0 μg/ml, 3 days
Description: as §3
presented. Number of cells was quantitated after 3 days'

[19] = tested on: Lewis Lung (LL) tumor; test: Schedule dependency of antitumor effect in Lewis Lung tumor; conditions: toremifene 150 mg/kg p.o. days 1-5
Description: as §2

[20] = in vitro; conditions: hamster, cho-k1 cells
Description: as §4, §5

[21] = tested on: Human melanoma UV-me-1; test: Toremifene and doxorubicin in human melanoma UV-me-1; conditions: doxorubicin 0 μg/ml, 2 days, control 100
[22] = drug 3.0 μg/ml +1 μM doxorubicin

## CC/C(=C(\c1ccccc1)c1ccc(OCCN(C)C)cc1)c1ccccc1 [Tamoxifen, tamoxifen]
[1]; 10 μM tamoxifen or perhexilene maleate
  Modulation of multidrug resistance: modulation of multidrug resistance; also recorded: possess activity for reversing MDR
[1]
  C14-doxorubicin accumulation: no increase in C14-doxorubicin accumulation
  Effect of 50 nM estradiol on the effects of tamoxifen: did not attenuate the effects of tamoxifen
[2]
  Reversal of MDR by triparonol analogues: reversal of MDR
[3]
  Inhibition of rat PKC activity in vitro: inhibition of rat PKC activity in vitro
[4]
  Safety / toxicity in clinical use: higher toxicity
[5]
  Effectiveness in reversing MDR: almost equally effective
[6]
  Reversal by oestradiol of growth inhibitory effects of high doses: could not be reversed by oestradiol
[7]
  Inhibition of PKC activity in vivo: inhibition of PKC activity in vivo

## CN(C)CCOc1ccc(/C(=C(/CCCl)c2ccccc2)c2ccccc2)cc1 [toremifene]
[8]
  Binding to α1-acid glycoprotein: bound in some extent
[9]
  Drug accumulation of doxorubicin: enhanced drug accumulation
[10]
  MCC at 24 h: > 10 µM
[11]
  Sensitivity to cytotoxic drugs in human tumors: can increase the sensitivity to cytotoxic drugs in human tumors
[12]
  Effect of toremifene addition on weight gain: not influenced by toremifene addition
[13]; CHO-Adr
  Potentiation of doxorubicin toxicity: the degree of potentiation was greater
[13]; CHO-Adr vs CHO-K1, increasing concentrations of toremifene
  Relative potentiation of doxorubicin toxicity, resistant vs wild-type: far greater in the CHO-Adr cell line than in the parent cell line; also recorded: greater for the resistant than the wild-type cells
[13]; CHO-Adr, AAG 2 mg/ml
  Effect of AAG on toremifene toxicity: protected both cell lines from toremifene toxicity
  Effect of toremifene on doxorubicin toxicity at highest AAG level: cell viability was no different from that when doxorubicin alone was present; also recorded: no longer any effect of toremifene on doxorubicin toxicity
[13]; CHO-Adr, doxorubicin + 10 μM toremifene
  AAG concentration above which potentiation by toremifene is gradually reversed: above 0.5 mg/ml
[13]; CHO-K1 and CHO-Adr, toremifene concentrations not inhibiting cell growth on their own
  Increase of sensitivity to doxorubicin: can be increased by toremifene concentrations which do not inhibit cell growth on their own
[14]
  Change of tumor size: +3.2 mm
[15]; AAG 2 mg/ml
  Effect of AAG on toremifene toxicity: protected both cell lines from toremifene toxicity
  Effect of toremifene on doxorubicin toxicity at highest AAG level: cell viability was no different from that when doxorubicin alone was present; also recorded: no longer any effect of toremifene on doxorubicin toxicity
[15]; doxorubicin + 10 μM toremifene
  AAG concentration above which potentiation by toremifene is gradually reversed: above 0.5 mg/ml
[15]; toremifene 1 to 10 μM
  Potentiation of doxorubicin toxicity: incremental potentiation of doxorubicin toxicity
[4]
  Safety / toxicity in clinical use: very safe drug
[4]; clinical phase I trials
  maximal tolerated dose: 400 to 600 mg daily
[16]; toremifene 1.0 μM, 4320 min
  Number of living cells: 104% of control values
[16]; toremifene 3.0 μM
  Number of living cells: 99% of control values
[16]; toremifene 10.0 μM, 4320 min
  Number of living cells: 97% of control values
[17]
  MDR reversing effect in patients' sera: A clear concentration-dependency
[5]
  Effectiveness in reversing MDR: almost equally effective
[5]; [22]
  Inhibition of cell growth, Actual: 38 % control
  Potential (potentiation of doxorubicin activity): 58 % control
[5]; drug […] +1 μM doxorubicin
  Inhibition of cell growth, Actual: 31 % control
  Potential (potentiation of doxorubicin activity): 48 % control
[18]; toremifene 1.0 μM
  Number of living cells: 95% of control values
[18]; toremifene 3.0 μM
  Number of living cells: 71% of control values
[18]; toremifene 10.0 μM
  Number of living cells: 66% of control values
[19]
  Change of tumor diameter: +5.4 mm
[20]
  MCC at 24 h: > 10 µM
[21]; toremifene 0.5 μM
  Toremifene and doxorubicin in UV-me-1 (living cells): 97
[21]; toremifene 5.0 μM
  Toremifene and doxorubicin in UV-me-1 (living cells): 32
